Reference: US9833497B2, “Human originated EGF domain proteins and use of the same” (CHENGDU SOURCEBIO LIMITED-LIABILITY COMPANY, priority 2013, dated 2017)

How the values were obtained:
Type in all cases: cell-based
E. coli BL21 = assay: MIC against Gram-negative bacteria: E. coli BL21
How it was run: (§1)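 Inocula prepared by growing LB cultures at 37° C to 0.5 McFarland, centrifuging at 4000×g, and resuspending in fresh medium. Final density 5×10^5 CFU/mL per well with two-fold dilutions of purified EGF domain protein; shaking incubation at 37° C.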

Klebsiella pneumonia = assay: MIC against Gram-negative bacteria: Klebsiella pneumonia
How it was run: as §1

Citrobacter diversus = assay: MIC against Gram-negative bacteria: Citrobacter diversus
How it was run: as §1

Serratia marcescens = assay: MIC against Gram-negative bacteria: Serratia marcescens
How it was run: as §1

Proteus mirabilis = assay: MIC against Gram-negative bacteria: Proteus mirabilis
How it was run: as §1

Moraxella catarrhalis = assay: MIC against Gram-negative bacteria: Moraxella catarrhalis
How it was run: as §1

Enterobacter cloacae = assay: MIC against Gram-negative bacteria: Enterobacter cloacae
How it was run: as §1

Aeromonas hydrophila = assay: MIC against Gram-negative bacteria: Aeromonas hydrophila
How it was run: as §1

Proteus vulgaris = assay: MIC against Gram-negative bacteria: Proteus vulgaris
How it was run: as §1

E. coli DH5α = assay: Antibacterial activity: MIC and growth curve against E. coli DH5α in 96-well plate; conditions: minimal inhibitory concentration against E. coli DH5α; 96-well plate, 5×10^5 CFU/mL, 37° C., judged after 8 h
How it was run: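 Log-phase bacteria (OD600 ~0.5) resuspended in LB at 5×10^5 CFU/mL, exposed to recombinant protein at 50, 25, 12.5 μg/mL final in triplicate, 37 °C shaking at 175 rpm. OD600 read every 30 min; MIC is lowest concentration showing no growth.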

Pseudomonas aeruginosa = assay: MIC against Gram-negative bacteria: Pseudomonas aeruginosa
How it was run: as §1

[1] = 96-well plate, 5×10^5 CFU/mL, 37° C., 10 h
[2] = E. coli BL21, 96-well plate, 5×10^5 CFU/mL, 37° C., 10 h
[3] = Klebsiella pneumonia, 96-well plate, 5×10^5 CFU/mL, 37° C., 10 h
[4] = Citrobacter diversus, 96-well plate, 5×10^5 CFU/mL, 37° C., 10 h
[5] = Serratia marcescens, 96-well plate, 5×10^5 CFU/mL, 37° C., 10 h
[6] = Proteus mirabilis, 96-well plate, 5×10^5 CFU/mL, 37° C., 10 h
[7] = Moraxella catarrhalis, 96-well plate, 5×10^5 CFU/mL, 37° C., 10 h
[8] = Enterobacter cloacae, 96-well plate, 5×10^5 CFU/mL, 37° C., 10 h
[9] = Aeromonas hydrophila, 96-well plate, 5×10^5 CFU/mL, 37° C., 10 h
[10] = Proteus vulgaris, 96-well plate, 5×10^5 CFU/mL, 37° C., 10 h
[11] = Pseudomonas aeruginosa, 96-well plate, 5×10^5 CFU/mL, 37° C., 10 h

PRT596 (CDCDPRTSQSSHCDQLTGQCPCKLGYGGKRCSECQENYYGDPPGRCIP; listed as Homo sapiens)
MIC E. coli BL21 (E. coli BL21; [1]): 25 µg/mL
MIC K. pneumonia (Klebsiella pneumonia; [1]): 25 µg/mL
MIC C. diversus (Citrobacter diversus; [1]): 50 µg/mL
MIC S. marcescens (Serratia marcescens; [1]): 50 µg/mL
MIC P. mirabilis (Proteus mirabilis; [1]): 12.5 µg/mL
MIC M. catarrhalis (Moraxella catarrhalis; [1]): 25 µg/mL
MIC E. cloacae (Enterobacter cloacae; [1]): 12.5 µg/mL
MIC A. hydrophila (Aeromonas hydrophila; [1]): 25 µg/mL
MIC P. vulgaris (Proteus vulgaris; [1]): 25 µg/mL
MIC (E. coli DH5α): 12.5 µg/mL
MIC P. aeruginosa (Pseudomonas aeruginosa; [1]): 50 µg/mL

PRT446 (DVDECVGLQPVCPQGTTCINTGGSFQCVSPECPEGSGNVSYVKTSPFQCE; listed as Homo sapiens)
MIC against E. coli BL21 (E. coli BL21; [1]): 12.5 µg/mL
MIC against K. pneumonia (Klebsiella pneumonia; [1]): 50 µg/mL
MIC against C. diversus (Citrobacter diversus; [1]): 12.5 µg/mL
MIC against S. marcescens (Serratia marcescens; [1]): 25 µg/mL
MIC against P. mirabilis (Proteus mirabilis; [1]): 25 µg/mL
MIC against M. catarrhalis (Moraxella catarrhalis; [1]): 50 µg/mL
MIC against E. cloacae (Enterobacter cloacae; [1]): 12.5 µg/mL
MIC against A. hydrophila (Aeromonas hydrophila; [1]): 50 µg/mL
MIC against P. vulgaris (Proteus vulgaris; [1]): 12.5 µg/mL
MIC (E. coli DH5α): 12.5 µg/mL
MIC against P. aeruginosa (Pseudomonas aeruginosa; [1]): 12.5 µg/mL

PRT1251 (CAFVCADCGSGHCDFQSGRCLCSPGVHGPHCN; listed as Homo sapiens)
MIC against E. coli BL21 (E. coli BL21; [2]): 25 µg/mL
MIC against K. pneumonia (Klebsiella pneumonia; [3]): 25 µg/mL
MIC against C. diversus (Citrobacter diversus; [4]): 50 µg/mL
MIC against S. marcescens (Serratia marcescens; [5]): 50 µg/mL
MIC against P. mirabilis (Proteus mirabilis; [6]): 12.5 µg/mL
MIC against M. catarrhalis (Moraxella catarrhalis; [7]): 25 µg/mL
MIC against E. cloacae (Enterobacter cloacae; [8]): 12.5 µg/mL
MIC against A. hydrophila (Aeromonas hydrophila; [9]): 25 µg/mL
MIC against P. vulgaris (Proteus vulgaris; [10]): 25 µg/mL
MIC (E. coli DH5α): 100 µg/mL
MIC against P. aeruginosa (Pseudomonas aeruginosa; [11]): 50 µg/mL

PRT956 (NIDDCAFASCTPGSTCIDRVASFSCMCPEGKAGLLCH; listed as Homo sapiens)
MIC (E. coli BL21; E. coli BL21, 10 h cultivation at 37° C.): 12.5 µg/mL
MIC (Klebsiella pneumonia; K. pneumonia, 10 h cultivation at 37° C.): 25 µg/mL
MIC (Citrobacter diversus; C. diversus, 10 h cultivation at 37° C.): 25 µg/mL
MIC (Serratia marcescens; S. marcescens, 10 h cultivation at 37° C.): 25 µg/mL
MIC (Proteus mirabilis; P. mirabilis, 10 h cultivation at 37° C.): 25 µg/mL
MIC (Moraxella catarrhalis; M. catarrhalis, 10 h cultivation at 37° C.): 12.5 µg/mL
MIC (Enterobacter cloacae; E. cloacae, 10 h cultivation at 37° C.): 12.5 µg/mL
MIC (Aeromonas hydrophila; A. hydrophila, 10 h cultivation at 37° C.): 25 µg/mL
MIC (Proteus vulgaris; P. vulgaris, 10 h cultivation at 37° C.): 50 µg/mL
MIC (E. coli DH5α): 12.5 µg/mL
MIC (Pseudomonas aeruginosa; P. aeruginosa, 10 h cultivation at 37° C.): 12.5 µg/mL

PRT617 (CNCNSKGSLSARCDNSGRCSCKPGVTGARCDRCLPGFHMLTDAGCTQ; listed as Homo sapiens)
MIC E. coli BL21 (E. coli BL21; [1]): 12.5 µg/mL
MIC K. pneumonia (Klebsiella pneumonia; [1]): 12.5 µg/mL
MIC C. diversus (Citrobacter diversus; [1]): 25 µg/mL
MIC S. marcescens (Serratia marcescens; [1]): 25 µg/mL
MIC P. mirabilis (Proteus mirabilis; [1]): 25 µg/mL
MIC M. catarrhalis (Moraxella catarrhalis; [1]): 12.5 µg/mL
MIC E. cloacae (Enterobacter cloacae; [1]): 25 µg/mL
MIC A. hydrophila (Aeromonas hydrophila; [1]): 12.5 µg/mL
MIC P. vulgaris (Proteus vulgaris; [1]): 12.5 µg/mL
MIC (E. coli DH5α): 25 µg/mL
MIC P. aeruginosa (Pseudomonas aeruginosa; [1]): 25 µg/mL

PRT73 (TNGQCQCKENYYKLLAQDTCLPCDCFPHGSHSRTCD; listed as Homo sapiens)
MIC (μg/mL) E. coli BL21 (E. coli BL21; [2]): 50 µg/mL
MIC (μg/mL) K. pneumonia (Klebsiella pneumonia; [3]): 100 µg/mL
MIC (μg/mL) C. diversus (Citrobacter diversus; [4]): 12.5 µg/mL
MIC (μg/mL) S. marcescens (Serratia marcescens; [5]): 12.5 µg/mL
MIC (μg/mL) P. mirabilis (Proteus mirabilis; [6]): 12.5 µg/mL
MIC (μg/mL) M. catarrhalis (Moraxella catarrhalis; [7]): 50 µg/mL
MIC (μg/mL) E. cloacae (Enterobacter cloacae; [8]): 25 µg/mL
MIC (μg/mL) A. hydrophila (Aeromonas hydrophila; [9]): 50 µg/mL
MIC (μg/mL) P. vulgaris (Proteus vulgaris; [10]): 50 µg/mL
MIC (E. coli DH5α): 25 µg/mL
MIC (μg/mL) P. aeruginosa (Pseudomonas aeruginosa; [11]): 25 µg/mL
